Test results reported in BindingDB's records for doi:10.1007/s10822-022-00478-x (Roche Innovation Center Basel, F. Hoffmann-La Roche Ltd., 2022).

Target: cAMP and cAMP-inhibited cGMP 3',5'-cyclic phosphodiesterase 10A (Homo sapiens, UniProt Q9Y233)
Assay: PDE10A assay
In short: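 Human PDE10A (2 ng/well) preincubated 15 min RT with compound in HEPES pH 7.5, 10 mM MgCl2, BSA, then reacted 15 min with 50 nM [3H]cGMP/cGMP substrate. Stopped with Y-Si SPA beads; bound radioactivity counted, IC50 from four-parameter logistic, pIC50 = −log10(IC50).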

Row | Compound | IC50 [nM]
1 | CCOC(=O)c1cnn(C)c1C(=O)Nc1ccn2nc(-c3cccnc3)nc2c1 [Roche-Dataset for PDE10A, Compound 268] | 34
2 | Cc1ncc(C)n2nc(CCc3nc(N4CCC[C@@H]4C)nn3C)nc12 [Roche-Dataset for PDE10A, Compound 269] | 4.54
3 | CNC(=O)c1cc(Cl)c(C)n2nc(CCc3nc(N4CCCC4)nn3C)nc12 [Roche-Dataset for PDE10A, Compound 273] | 6160
4 | Cc1cnc(C)n2nc(/C=C/c3nc(N4CCCC4)nn3C3CC3)nc12 [Roche-Dataset for PDE10A, Compound 274] | 19
5 | CN(CCO)C(=O)c1cnn(C)c1C(=O)Nc1ccn2nc(N3CCOCC3)nc2c1 [Roche-Dataset for PDE10A, Compound 276] | 20
6 | COc1ccccc1-c1cn2c(n1)C[C@H](NC(=O)c1c(C(=O)N(C)C3CC3)cnn1C)CC2 [Roche-Dataset for PDE10A, Compound 278] | 13
7 | CCOC(=O)c1cnn(C)c1C(=O)Nc1ccn2nc(-c3ccnc(F)c3)nc2c1 [Roche-Dataset for PDE10A, Compound 280] | 790
8 | CNC(=O)c1c(-c2nc(CCc3nc4c(C)ncc(C)n4n3)n(C)n2)cnn1C [Roche-Dataset for PDE10A, Compound 290] | 337
9 | Cc1nc(C)n2nc(/C=C/c3nc(N4CCCC4)nn3C)nc2c1C [Roche-Dataset for PDE10A, Compound 293] | 9.16
10 | O=C1c2ccccc2C(=O)N1CCc1cnc(-c2ccccc2)[nH]1 [Roche-Dataset for PDE10A, Compound 299] | 503
11 | Cc1cc(Cl)c(C)n2nc(/C=C/c3nc(N4CCCC4)nn3C)nc12 [Roche-Dataset for PDE10A, Compound 300] | 0.33
12 | O=C1c2ccccc2CN1c1ccc2nc(-c3ccccc3)[nH]c2c1 [Roche-Dataset for PDE10A, Compound 307] | 371

Further lines, results first:

Row | IC50 [nM] | Compound
13 | 48 | O=C(NCCc1noc(-c2ccccc2)n1)c1nc(C2CC2)cnc1Nc1cncnc1 [Roche-Dataset for PDE10A, Compound 271]
14 | 137 | O=C(NCCc1noc(Cc2ccccc2)n1)c1nc(C2CC2)cnc1Nc1cncnc1 [Roche-Dataset for PDE10A, Compound 275]
15 | 1.16 | Cn1ncc(C(=O)N2CCC2)c1C(=O)Nc1ccn2nc(-c3cccnc3)nc2c1 [Roche-Dataset for PDE10A, Compound 281]
16 | 75 | Cc1cc(NC(=O)c2ccc3cc(-c4ccccc4)nn3c2)cc(C)n1 [Roche-Dataset for PDE10A, Compound 286]
17 | 52 | Cn1ncc(CO)c1C(=O)Nc1ccn2nc(-c3ccccc3)nc2c1 [Roche-Dataset for PDE10A, Compound 287]
18 | 307 | Cn1cc(-c2ccccc2)nc1CCc1cncc(-c2ccn[nH]2)n1 [Roche-Dataset for PDE10A, Compound 289]
19 | 5910 | O=C1c2ccccc2C(=O)N1CCc1csc(-c2cccnc2)n1 [Roche-Dataset for PDE10A, Compound 292]
20 | 6500 | Cn1cc(-c2cccc(CCc3nc(-c4ccccc4)cn3C)n2)cn1 [Roche-Dataset for PDE10A, Compound 296]
21 | 134 | Cn1cc(-c2ccccc2)nc1COc1ncc(Cl)nc1C(=O)NCc1ccccc1 [Roche-Dataset for PDE10A, Compound 297]
22 | 88 | Cn1cc(-c2ccccc2)nc1CCNC(=O)c1cccn2c(C(F)(F)F)nnc12 [Roche-Dataset for PDE10A, Compound 298]
23 | 181 | Cn1ncc(C(=O)NC2COC2)c1C(=O)N[C@@H]1CCn2cc(-c3ccccc3)nc2C1 [Roche-Dataset for PDE10A, Compound 302]
24 | 7.17 | COCCNC(=O)c1cc2[nH]c(-c3ccccc3)nc2cc1NC(=O)c1cc(Br)c[nH]c1=O [Roche-Dataset for PDE10A, Compound 303]
25 | 0.79 | COCCN(C)C(=O)c1cnn(C)c1C(=O)Nc1cc2nc(-c3ccccc3)nn2cn1 [Roche-Dataset for PDE10A, Compound 304]
26 | 35 | COCCNC(=O)c1cc2[nH]c(-c3ccccc3)nc2cc1NC(=O)c1ccnnc1 [Roche-Dataset for PDE10A, Compound 306]
